Source: ChEMBL document CHEMBL1141575, “Preparation and in vitro biological evaluation of tetrapyrrole ethanolamide derivatives as potential anticancer agents” (Bioorg Med Chem Lett, 2008)

Key:
HeLa [1] = assay: Survival of human HeLa cells at 0.1 uM under deem light after 96 hrs by MTT assay relative to control; type: functional; details: read-out: Survival
HeLa [2] = assay: Survival of human HeLa cells at 50 uM under deem light after 96 hrs by MTT assay relative to control; type: functional; details: read-out: Survival
HeLa [3] = assay: Survival of human HeLa cells at 100 uM under deem light after 96 hrs by MTT assay relative to control; type: functional; details: read-out: Survival
NCI-H69 [4] = assay: Survival of human H69 cells at 0.1 uM under deem light after 96 hrs by MTT assay relative to control; type: functional; details: NCI-H69, 96 h, read-out: Survival
NCI-H69 [5] = assay: Survival of human H69 cells at 50 uM under deem light after 96 hrs by MTT assay relative to control; type: functional; details: NCI-H69, 96 h, read-out: Survival
NCI-H69 [6] = assay: Survival of human H69 cells at 100 uM under deem light after 96 hrs by MTT assay relative to control; type: functional; details: NCI-H69, 96 h, read-out: Survival
[7] = Survival of human H209 cells at 0.1 uM under deem light after 96 hrs by MTT assay relative to control; type: functional; details: NCI-H209, 96 h, read-out: Survival
[8] = Survival of human H209 cells at 50 uM under deem light after 96 hrs by MTT assay relative to control; type: functional; details: NCI-H209, 96 h, read-out: Survival
[9] = Survival of human H209 cells at 100 uM under deem light after 96 hrs by MTT assay relative to control; type: functional; details: NCI-H209, 96 h, read-out: Survival
[10] = Survival of human 2780.9S cells at 0.1 uM under deem light after 96 hrs by MTT assay relative to control; type: functional; details: read-out: Survival
[11] = Survival of human 2780.9S cells at 50 uM under deem light after 96 hrs by MTT assay relative to control; type: functional; details: read-out: Survival
[12] = Survival of human 2780.9S cells at 100 uM under deem light after 96 hrs by MTT assay relative to control; type: functional; details: read-out: Survival
[13] = Survival of human MDA-MB cells at 0.1 uM under deem light after 96 hrs by MTT assay relative to control; type: functional; details: read-out: Survival
[14] = Survival of human MDA-MB cells at 10 uM under deem light after 96 hrs by MTT assay relative to control; type: functional; details: read-out: Survival
[15] = Survival of human MDA-MB cells at 50 uM under deem light after 96 hrs by MTT assay relative to control; type: functional; details: read-out: Survival
[16] = Survival of human MDA-MB cells at 100 uM under deem light after 96 hrs by MTT assay relative to control; type: functional; details: read-out: Survival
SiHa [17] = assay: Cytotoxicity against human SIHA cells under deem light after 96 hrs by MTT assay; type: functional, cell-based
Raji [18] = assay: Cytotoxicity against human Raji cells under deem light after 96 hrs by MTT assay; type: functional, cell-based
[19] = Cytotoxicity against human MDA-MB cells under deem light after 96 hrs by MTT assay; type: functional, cell-based
K562 [20] = assay: Cytotoxicity against human K562 cells under deem light after 96 hrs by MTT assay; type: functional, cell-based; details: K562, 96 h
HeLa [21] = assay: Cytotoxicity against human HeLa cells under deem light after 96 hrs by MTT assay; type: functional, cell-based
NCI-H69 [22] = assay: Cytotoxicity against human H69 cells under deem light after 96 hrs by MTT assay; type: functional, cell-based; details: NCI-H69, 96 h
Daudi = assay: Cytotoxicity against human Daudi cells under deem light after 96 hrs by MTT assay; type: functional, cell-based
[23] = Cytotoxicity against human 2780.9S cells under deem light after 96 hrs by MTT assay; type: functional, cell-based
[24] = Photohemolysis in human RBC in absence of light; type: ADME, cell-based; details: erythrocyte
[25] = Photohemolysis in human RBC at 125 nM under exposure to light for 10 mins; type: ADME, cell-based, Erythrocyte; details: human red blood cells, read-out: Activity
[26] = Photohemolysis in human RBC assessed as concentration required to 50% hemolysis under light exposure for 5 mins; type: ADME, cell-based, Erythrocyte; details: human red blood cells, read-out: Activity
[27] = Photohemolysis in human RBC assessed as concentration required to 50% hemolysis under light exposure for 10 mins; type: ADME, cell-based, Erythrocyte; details: human red blood cells, read-out: Activity
SiHa [28] = assay: Survival of human SIHA cells at 1 uM under deem light after 96 hrs by MTT assay relative to control; type: functional; details: read-out: Survival
K562 [29] = assay: Survival of human K562 cells at 1 uM under deem light after 96 hrs by MTT assay relative to control; type: functional; details: K562, 96 h, read-out: Survival
Raji [30] = assay: Survival of human Raji cells at 1 uM under deem light after 96 hrs by MTT assay relative to control; type: functional; details: read-out: Survival
HeLa [31] = assay: Survival of human HeLa cells at 1 uM under deem light after 96 hrs by MTT assay relative to control; type: functional; details: read-out: Survival
NCI-H69 [32] = assay: Survival of human H69 cells at 1 uM under deem light after 96 hrs by MTT assay relative to control; type: functional; details: NCI-H69, 96 h, read-out: Survival
[33] = Survival of human H209 cells at 1 uM under deem light after 96 hrs by MTT assay relative to control; type: functional; details: NCI-H209, 96 h, read-out: Survival
[34] = Survival of human 2780.9S cells at 1 uM under deem light after 96 hrs by MTT assay relative to control; type: functional; details: read-out: Survival
[35] = Survival of human MDA-MB cells at 1 uM under deem light after 96 hrs by MTT assay relative to control; type: functional; details: read-out: Survival
Raji [36] = assay: Survival of human Raji cells at 15.7 uM under deem light after 96 hrs by MTT assay relative to control; type: functional; details: read-out: Survival
HeLa [37] = assay: Survival of human HeLa cells at 15.7 uM under deem light after 96 hrs by MTT assay relative to control; type: functional; details: read-out: Survival
NCI-H69 [38] = assay: Survival of human H69 cells at 15.7 uM under deem light after 96 hrs by MTT assay relative to control; type: functional; details: NCI-H69, 96 h, read-out: Survival
[39] = Survival of human H209 cells at 15.7 uM under deem light after 96 hrs by MTT assay relative to control; type: functional; details: NCI-H209, 96 h, read-out: Survival
[40] = Survival of human 2780.9S cells at 15.7 uM under deem light after 96 hrs by MTT assay relative to control; type: functional; details: read-out: Survival
[41] = Survival of human MDA-MB cells at 15.7 uM under deem light after 96 hrs by MTT assay relative to control; type: functional; details: read-out: Survival
K562 [42] = assay: Survival of human K562 cells at 15.7 uM under deem light after 96 hrs by MTT assay relative to control; type: functional; details: K562, 96 h, read-out: Survival
SiHa [43] = assay: Survival of human SIHA cells at 50 uM under deem light after 96 hrs by MTT assay relative to control; type: functional; details: read-out: Survival
SiHa [44] = assay: Survival of human SIHA cells at 100 uM under deem light after 96 hrs by MTT assay relative to control; type: functional; details: read-out: Survival
K562 [45] = assay: Survival of human K562 cells at 0.1 uM under deem light after 96 hrs by MTT assay relative to control; type: functional; details: K562, 96 h, read-out: Survival
K562 [46] = assay: Survival of human K562 cells at 50 uM under deem light after 96 hrs by MTT assay relative to control; type: functional; details: K562, 96 h, read-out: Survival
K562 [47] = assay: Survival of human K562 cells at 100 uM under deem light after 96 hrs by MTT assay relative to control; type: functional; details: K562, 96 h, read-out: Survival
Raji [48] = assay: Survival of human Raji cells at 0.1 uM under deem light after 96 hrs by MTT assay relative to control; type: functional; details: read-out: Survival
Raji [49] = assay: Survival of human Raji cells at 50 uM under deem light after 96 hrs by MTT assay relative to control; type: functional; details: read-out: Survival
Raji [50] = assay: Survival of human Raji cells at 100 uM under deem light after 96 hrs by MTT assay relative to control; type: functional; details: read-out: Survival

## CCCOC(C)C1=C(C)c2cc3[nH]c(cc4nc(cc5[nH]c(cc1n2)c(C)c5CCC(=O)NCCO)C(CCC(=O)NCCO)=C4C)c(C)c3C(C)OCCC (stereo unspecified) [HEMATOPORPHYRIN PROPYLETHER ETHANOLAMIDE]
HeLa [1]
  viability at 0.1 µM: 99.6%
HeLa [2]
  viability at 50 µM: 7.4%
HeLa [3]
  viability at 100 µM: 10.5%
NCI-H69 [4]
  viability at 0.1 µM: 95.5%
NCI-H69 [5]
  viability at 50 µM: 16.1%
NCI-H69 [6]
  viability at 100 µM: 14.4%
[7]
  viability at 0.1 µM: 97.8%
[8]
  viability at 50 µM: 8.6%
[9]
  viability at 100 µM: 9.8%
[10]
  viability at 0.1 µM: 106%
[11]
  viability at 50 µM: 12.3%
[12]
  viability at 100 µM: 6.5%
[13]
  viability at 0.1 µM: 137%
[14]
  viability at 10 µM: 104%
[15]
  viability at 50 µM: 7.4%
[16]
  viability at 100 µM: 5.2%
SiHa [17]
  IC50: 44 µM
Raji [18]
  IC50: 21 µM
[19]
  IC50: 12 µM
K562 [20]
  IC50: 22 µM
HeLa [21]
  IC50: 21 µM
NCI-H69 [22]
  IC50: 22 µM
Daudi
  IC50: 22 µM
[23]
  IC50: 16 µM
[24]
  Activity: Non-toxic
[25]
  hemolysis at 10 min, 0.125 µM: 100%
[26]
  HC50 at 5 min: 90 nM
[27]
  HC50 at 10 min: 210 nM
SiHa [28]
  viability at 1 µM: 100%
K562 [29]
  viability at 1 µM: 84.7%
Raji [30]
  viability at 1 µM: 99.5%
HeLa [31]
  viability at 1 µM: 119%
NCI-H69 [32]
  viability at 1 µM: 97%
[33]
  viability at 1 µM: 105%
[34]
  viability at 1 µM: 100%
[35]
  viability at 1 µM: 112%
Raji [36]
  viability at 15.7 µM: 23.6%
HeLa [37]
  viability at 15.7 µM: 7.8%
NCI-H69 [38]
  viability at 15.7 µM: 17.1%
[39]
  viability at 15.7 µM: 16.1%
[40]
  viability at 15.7 µM: 19.3%
[41]
  viability at 15.7 µM: 24.3%
K562 [42]
  viability at 15.7 µM: 28.5%
SiHa [43]
  viability at 50 µM: 2.2%
SiHa [44]
  viability at 100 µM: 6.7%
K562 [45]
  viability at 0.1 µM: 72.9%
K562 [46]
  viability at 50 µM: 5.7%
K562 [47]
  viability at 100 µM: 6.67%
Raji [48]
  viability at 0.1 µM: 96.1%
Raji [49]
  viability at 50 µM: 5.9%
Raji [50]
  viability at 100 µM: 5.4%
